Source: ChEMBL document CHEMBL4476871, “SULFAMIDE AND SULFAMATE INHIBITORS OF hHint1” (2018)
Active and inactive are the calls of the source. No cut-off for these calls is given here.

Legend:
Mus musculus [1] = assay: Analgesic activity in ICR mouse model of spared nerve injury assessed as reduction in mechanical hypersensitivity at 1 nmol administered intrathecally prior to spared nerve injury by Von Frey test; assay type: functional, organism-based
Mus musculus [2] = assay: Analgesic activity in ICR mouse model of spared nerve injury assessed as reduction in mechanical hypersensitivity at 1 nmol administered intrathecally 7 days post spared nerve injury measured after 4 hrs by Von Frey test; assay type: functional, organism-based
[3] = target: Adenosine 5'-monophosphoramidase HINT1 (Homo sapiens) (UniProt P49773); assay: Inhibition of human N-terminal His6-tagged Hint1 expressed in Escherichia coli Rosetta 2 pLysS cells by fluorescence assay
Mus musculus [4] = assay: Analgesic activity in ICR mouse model of spared nerve injury assessed as reduction in mechanical hypersensitivity at 1 nmol administered intrathecally 7 days post spared nerve injury by Von Frey test; assay type: functional, organism-based

Chain of Adenosine 5'-monophosphoramidase HINT1 (Homo sapiens) (P49773 whole entry): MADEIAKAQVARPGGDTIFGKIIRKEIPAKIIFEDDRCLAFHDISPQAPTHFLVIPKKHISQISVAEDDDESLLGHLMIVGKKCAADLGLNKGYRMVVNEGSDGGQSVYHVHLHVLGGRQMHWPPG

O=C(CCc1c[nH]c2ccccc12)NS(=O)(=O)OC[C@H]1O[C@@H](n2cnc3c2ncn2ccnc32)[C@@H](O)C1O (stereo partly specified)
Activity (Mus musculus [1]): inactive
Activity (Mus musculus [2]): Active

Nc1ncnc2c1ncn2[C@@H]1O[C@H](CNS(=O)(=O)NC(=O)CCCC[C@@H]2SC[C@@H]3NC(=O)N[C@@H]32)[C@@H](O)[C@H]1O
inhibition [3]: Dose-dependent effect

Nc1nc2c(ncn2[C@@H]2O[C@H](COC(=O)NCCc3c[nH]c4ccccc34)[C@@H](O)[C@H]2O)c(=O)[nH]1
inhibition [3]: Dose-dependent effect
Activity (Mus musculus [1]): Active
Activity (Mus musculus [4]): Active
